Assays:
[1] = refractive index (Na D-line) (dimensionless); xn = mol fraction of the nth substance listed; settings: 100 kPa, Liquid, Standard Abbe refractometry
[2] = xn = mol fraction of the nth substance listed; settings: 100 kPa, Liquid; for speed of sound: Frequency=3 MHz, Sing-around technique in a fixed-path interferometer; for mass density: Vibrating tube method

CCCCCCC(=O)O [heptanoic acid] + CCC(=O)O
Settings	mass density, [2] [kg/m3]	refractive index, [1]	speed of sound, [2] [m/s]
293.15 K, x1 = 0.0539	985.8	1.39	1176
293.15 K, x1 = 0.1023	979.3	1.3929	1185
293.15 K, x1 = 0.2037	967.5	1.3982	1202
293.15 K, x1 = 0.3021	957.8	1.4026	1217
293.15 K, x1 = 0.4007	949.6	1.4066	1231
293.15 K, x1 = 0.5015	942.3	1.4102	1244
293.15 K, x1 = 0.6051	935.9	1.4135	1257
293.15 K, x1 = 0.7009	930.7	1.4162	1267
293.15 K, x1 = 0.8016	925.8	1.4188	1277
293.15 K, x1 = 0.9002	921.5	1.4212	1287
293.15 K, x1 = 0.95	919.5	1.4223	1291
293.15 K, x1 = 1	917.7	1.4234	1295
298.15 K, x1 = 0.0539	980.5	1.388	1158
298.15 K, x1 = 0.1023	974.2	1.3909	1166
298.15 K, x1 = 0.2037	962.5	1.3961	1184
298.15 K, x1 = 0.3021	953	1.4006	1199
298.15 K, x1 = 0.4007	944.9	1.4045	1213
298.15 K, x1 = 0.5015	937.7	1.4081	1226
298.15 K, x1 = 0.6051	931.1	1.4114	1239
298.15 K, x1 = 0.7009	926.3	1.4142	1249
298.15 K, x1 = 0.8016	921.4	1.4169	1260
298.15 K, x1 = 0.9002	917.2	1.4192	1269
298.15 K, x1 = 0.95	915.3	1.4203	1273
298.15 K, x1 = 1	913.5	1.4214	1278
303.15 K, x1 = 0.0539	975.2	1.3859	1139
303.15 K, x1 = 0.1023	969	1.3888	1148
303.15 K, x1 = 0.2037	957.5	1.394	1165
303.15 K, x1 = 0.3021	948.1	1.3985	1180
303.15 K, x1 = 0.4007	940.2	1.4024	1195
303.15 K, x1 = 0.5015	933.2	1.406	1208
303.15 K, x1 = 0.6051	926.9	1.4094	1220
303.15 K, x1 = 0.7009	921.9	1.4121	1231
303.15 K, x1 = 0.8016	917.1	1.4148	1242
303.15 K, x1 = 0.9002	913	1.4171	1251
303.15 K, x1 = 0.95	911.1	1.4183	1256
303.15 K, x1 = 1	909.3	1.4194	1260
308.15 K, x1 = 0.0539	970	1.3838	1120
308.15 K, x1 = 0.1023	963.8	1.3866	1129
308.15 K, x1 = 0.2037	952.5	1.3919	1146
308.15 K, x1 = 0.3021	943.3	1.3963	1162
308.15 K, x1 = 0.4007	935.5	1.4003	1176
308.15 K, x1 = 0.5015	928.6	1.4039	1190
308.15 K, x1 = 0.6051	922.4	1.4073	1202
308.15 K, x1 = 0.7009	917.5	1.4101	1213
308.15 K, x1 = 0.8016	912.8	1.4127	1224
308.15 K, x1 = 0.9002	908.8	1.4151	1233
308.15 K, x1 = 0.95	906.9	1.4162	1238
308.15 K, x1 = 1	905.1	1.4173	1242
313.15 K, x1 = 0.0539	964.7	1.3816	1101
313.15 K, x1 = 0.1023	958.6	1.3845	1110
313.15 K, x1 = 0.2037	947.5	1.3897	1128
313.15 K, x1 = 0.3021	938.4	1.3942	1144
313.15 K, x1 = 0.4007	930.8	1.3982	1158
313.15 K, x1 = 0.5015	924	1.4018	1172
313.15 K, x1 = 0.6051	918	1.4052	1185
313.15 K, x1 = 0.7009	913.1	1.408	1196
313.15 K, x1 = 0.8016	908.5	1.4107	1206
313.15 K, x1 = 0.9002	904.5	1.4131	1216
313.15 K, x1 = 0.95	902.7	1.4142	1220
313.15 K, x1 = 1	900.9	1.4153	1225
